Experimental data taken from PubChem BioAssay AID2060886 (Molecular Pharmacology Branch, DTP, NCI, 2025).

Test system: 653999-131-R-J2-PDC complex spheroids, growth inhibition
Assay: Anticancer human tumor 653999-131-R-J2-PDC patient-derived lung adenocarcinoma cell line growth inhibition [RAS]
Settings: for IC50: curve of first compound; for viability, T/C: stronger effect = lower value
Outline: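 Multi-cell-type spheroids: tumor cells plus HUVEC endothelial cells and mesenchymal stem cells. RAS-pathway inhibitors were combined with targeted agents, each dosed in half-log steps down from clinical Cmax, or from 10 microM when Cmax was unknown.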

[1] = second compound 0.0316 µM, first compound 0.00316 µM
[2] = second compound 0.0316 µM, first compound 0.01 µM
[3] = second compound 0.0316 µM, first compound 0.0316 µM
[4] = second compound 0.0316 µM, first compound 0.1 µM
[5] = second compound 0.0316 µM, first compound 0.316 µM
[6] = second compound 0.0316 µM, first compound 1 µM
[7] = second compound 0.1 µM, first compound 0.00316 µM
[8] = second compound 0.1 µM, first compound 0.01 µM
[9] = second compound 0.1 µM, first compound 0.0316 µM
[10] = second compound 0.1 µM, first compound 0.1 µM
[11] = second compound 0.1 µM, first compound 0.316 µM
[12] = second compound 0.1 µM, first compound 1 µM
[13] = second compound 0.316 µM, first compound 0.00316 µM
[14] = second compound 0.316 µM, first compound 0.01 µM
[15] = second compound 0.316 µM, first compound 0.0316 µM
[16] = second compound 0.316 µM, first compound 0.1 µM
[17] = second compound 0.316 µM, first compound 0.316 µM
[18] = second compound 0.316 µM, first compound 1 µM
[19] = second compound 1 µM, first compound 0.00316 µM
[20] = second compound 1 µM, first compound 0.01 µM
[21] = second compound 1 µM, first compound 0.0316 µM
[22] = second compound 1 µM, first compound 0.1 µM
[23] = second compound 1 µM, first compound 0.316 µM
[24] = second compound 1 µM, first compound 1 µM
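Note: spheroids exposed to the agents for seven days before the readout.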

Nc1ccn(C2OC(CO)C(O)C2(F)F)c(=O)n1 (stereo unspecified) + C=CC(=O)N1CCN(c2nc(OCC3CCCN3C)nc3c(F)c(-c4nc(N)cc(C)c4C(F)(F)F)c(Cl)cc23)C(C)C1
IC50 (second compound 0.00316 µM): 126 nM | IC50 (second compound 0.01 µM): 61.8 nM | IC50 (second compound 0.0316 µM): 84.6 nM | IC50 (second compound 0.1 µM): 47.2 nM | IC50 (second compound 0.316 µM): 93.4 nM | IC50 (second compound 1 µM): 90.3 nM | viability, T/C (second compound 0.00316 µM, first compound 0.00316 µM): 86.5% | viability, T/C (second compound 0.00316 µM, first compound 0.01 µM): 82.4% | viability, T/C (second compound 0.00316 µM, first compound 0.0316 µM): 61.8% | viability, T/C (second compound 0.00316 µM, first compound 0.1 µM): 56% | viability, T/C (second compound 0.00316 µM, first compound 0.316 µM): 38.7% | viability, T/C (second compound 0.00316 µM, first compound 1 µM): 32% | viability, T/C (second compound 0.01 µM, first compound 0.00316 µM): 107% | viability, T/C (second compound 0.01 µM, first compound 0.01 µM): 78.3% | viability, T/C (second compound 0.01 µM, first compound 0.0316 µM): 54% | viability, T/C (second compound 0.01 µM, first compound 0.1 µM): 45.9% | viability, T/C (second compound 0.01 µM, first compound 0.316 µM): 41.2% | viability, T/C (second compound 0.01 µM, first compound 1 µM): 29.7% | viability, T/C [1]: 80.3% | viability, T/C [2]: 79.8% | viability, T/C [3]: 67.8% | viability, T/C [4]: 46.6% | viability, T/C [5]: 38.2% | viability, T/C [6]: 33.8% | viability, T/C [7]: 84.3% | viability, T/C [8]: 77.3% | viability, T/C [9]: 55.7% | viability, T/C [10]: 38.2% | viability, T/C [11]: 40.1% | viability, T/C [12]: 30.5% | viability, T/C [13]: 94.6% | viability, T/C [14]: 80.4% | viability, T/C [15]: 59.9% | viability, T/C [16]: 48.2% | viability, T/C [17]: 42.2% | viability, T/C [18]: 29.8% | viability, T/C [19]: 89.5% | viability, T/C [20]: 81.4% | viability, T/C [21]: 60.6% | viability, T/C [22]: 48.9% | viability, T/C [23]: 42.2% | viability, T/C [24]: 33.7%

Nc1ccn(C2OC(CO)C(O)C2(F)F)c(=O)n1 (stereo unspecified) + CCn1c(-c2cccnc2C(C)OC)c2c3cc(ccc31)N1CCOC(CC(NC(=O)C(C(C)C)N(C)C(=O)C3(F)CCN(C(=O)C#CC(C)(C)N(C)C)CC3)C(=O)N3CCCC(N3)C(=O)OCC(C)(C)C2)C1
IC50 (second compound 0.000949 µM): 70.6 nM | IC50 (second compound 0.003 µM): 66.1 nM | IC50 (second compound 0.00949 µM): 61.9 nM | IC50 (second compound 0.03 µM): 64.4 nM | IC50 (second compound 0.0949 µM): 42.5 nM | IC50 (second compound 0.3 µM): 59.3 nM | viability, T/C (second compound 0.000949 µM, first compound 0.00316 µM): 93.8% | viability, T/C (second compound 0.000949 µM, first compound 0.01 µM): 74.9% | viability, T/C (second compound 0.000949 µM, first compound 0.0316 µM): 59.8% | viability, T/C (second compound 0.000949 µM, first compound 0.1 µM): 41.4% | viability, T/C (second compound 0.000949 µM, first compound 0.316 µM): 49.4% | viability, T/C (second compound 0.000949 µM, first compound 1 µM): 37.4% | viability, T/C (second compound 0.003 µM, first compound 0.00316 µM): 110% | viability, T/C (second compound 0.003 µM, first compound 0.01 µM): 74.8% | viability, T/C (second compound 0.003 µM, first compound 0.0316 µM): 57.9% | viability, T/C (second compound 0.003 µM, first compound 0.1 µM): 44.7% | viability, T/C (second compound 0.003 µM, first compound 0.316 µM): 44% | viability, T/C (second compound 0.003 µM, first compound 1 µM): 36.1% | viability, T/C (second compound 0.00949 µM, first compound 0.00316 µM): 93.1% | viability, T/C (second compound 0.00949 µM, first compound 0.01 µM): 67.1% | viability, T/C (second compound 0.00949 µM, first compound 0.0316 µM): 59.7% | viability, T/C (second compound 0.00949 µM, first compound 0.1 µM): 45.5% | viability, T/C (second compound 0.00949 µM, first compound 0.316 µM): 36.9% | viability, T/C (second compound 0.00949 µM, first compound 1 µM): 38.2% | viability, T/C (second compound 0.03 µM, first compound 0.00316 µM): 93.8% | viability, T/C (second compound 0.03 µM, first compound 0.01 µM): 66.9% | viability, T/C (second compound 0.03 µM, first compound 0.0316 µM): 57.7% | viability, T/C (second compound 0.03 µM, first compound 0.1 µM): 50.3% | viability, T/C (second compound 0.03 µM, first compound 0.316 µM): 36% | viability, T/C (second compound 0.03 µM, first compound 1 µM): 31.8% | viability, T/C (second compound 0.0949 µM, first compound 0.00316 µM): 94.5% | viability, T/C (second compound 0.0949 µM, first compound 0.01 µM): 64.9% | viability, T/C (second compound 0.0949 µM, first compound 0.0316 µM): 53.8% | viability, T/C (second compound 0.0949 µM, first compound 0.1 µM): 45.6% | viability, T/C (second compound 0.0949 µM, first compound 0.316 µM): 37.2% | viability, T/C (second compound 0.0949 µM, first compound 1 µM): 33.2% | viability, T/C (second compound 0.3 µM, first compound 0.00316 µM): 91.5% | viability, T/C (second compound 0.3 µM, first compound 0.01 µM): 78.3% | viability, T/C (second compound 0.3 µM, first compound 0.0316 µM): 62.2% | viability, T/C (second compound 0.3 µM, first compound 0.1 µM): 40.1% | viability, T/C (second compound 0.3 µM, first compound 0.316 µM): 33.3% | viability, T/C (second compound 0.3 µM, first compound 1 µM): 33.5%

CCN1CCN(Cc2ccc(Nc3ncc(F)c(-c4cc(F)c5nc(C)n(C(C)C)c5c4)n3)nc2)CC1 + C#Cc1c(F)ccc2cc(O)cc(-c3ncc4c(N5CC6CCC(C5)N6)nc(OCC56CCCN5CC(F)C6)nc4c3F)c12
IC50 (second compound 0.0316 µM): > 1000 nM | IC50 (second compound 0.1 µM): > 1000 nM | IC50 (second compound 0.316 µM): 28.2 nM | IC50 (second compound 1 µM): < 3.16 nM | IC50 (second compound 3.16 µM): < 3.16 nM | IC50 (second compound 10 µM): < 3.16 nM | viability, T/C [1]: 74.8% | viability, T/C [2]: 88.1% | viability, T/C [3]: 65.6% | viability, T/C [4]: 57.4% | viability, T/C [5]: 62% | viability, T/C [6]: 63.2% | viability, T/C [7]: 70.5% | viability, T/C [8]: 71.8% | viability, T/C [9]: 57.2% | viability, T/C [10]: 52.1% | viability, T/C [11]: 54.8% | viability, T/C [12]: 61% | viability, T/C [13]: 64.7% | viability, T/C [14]: 62.8% | viability, T/C [15]: 43.8% | viability, T/C [16]: 49.3% | viability, T/C [17]: 50.8% | viability, T/C [18]: 50.5% | viability, T/C [19]: 37.7% | viability, T/C [20]: 43.6% | viability, T/C [21]: 39.9% | viability, T/C [22]: 30.9% | viability, T/C [23]: 29.9% | viability, T/C [24]: 41.7% | viability, T/C (second compound 3.16 µM, first compound 0.00316 µM): 35.3% | viability, T/C (second compound 3.16 µM, first compound 0.01 µM): 31.7% | viability, T/C (second compound 3.16 µM, first compound 0.0316 µM): 34.4% | viability, T/C (second compound 3.16 µM, first compound 0.1 µM): 26.6% | viability, T/C (second compound 3.16 µM, first compound 0.316 µM): 33.3% | viability, T/C (second compound 3.16 µM, first compound 1 µM): 33.3% | viability, T/C (second compound 10 µM, first compound 0.00316 µM): 18.4% | viability, T/C (second compound 10 µM, first compound 0.01 µM): 17.3% | viability, T/C (second compound 10 µM, first compound 0.0316 µM): 22.3% | viability, T/C (second compound 10 µM, first compound 0.1 µM): 19.4% | viability, T/C (second compound 10 µM, first compound 0.316 µM): 20.2% | viability, T/C (second compound 10 µM, first compound 1 µM): 26.9%
